Assays:
MDR1 = test: Apparent permeability in pig LLC-PK1 cells transfected with MDR1; type: ADME, cell-based, Sus scrofa
[1] = Half life in Wistar Han rat at 2 mg/kg, iv; type: ADME, organism-based; conditions: in vivo
Protein O-GlcNAcase [2] = biological target: T1, Protein O-GlcNAcase (Rattus norvegicus, UniProt Q8VIJ5); test: Inhibition of OGA in rat PC12 cells assessed as OGlcNAcylated protein level incubated for 24 hrs by ELISA; type: cell-based
T1 sequence (Q8VIJ5 whole entry): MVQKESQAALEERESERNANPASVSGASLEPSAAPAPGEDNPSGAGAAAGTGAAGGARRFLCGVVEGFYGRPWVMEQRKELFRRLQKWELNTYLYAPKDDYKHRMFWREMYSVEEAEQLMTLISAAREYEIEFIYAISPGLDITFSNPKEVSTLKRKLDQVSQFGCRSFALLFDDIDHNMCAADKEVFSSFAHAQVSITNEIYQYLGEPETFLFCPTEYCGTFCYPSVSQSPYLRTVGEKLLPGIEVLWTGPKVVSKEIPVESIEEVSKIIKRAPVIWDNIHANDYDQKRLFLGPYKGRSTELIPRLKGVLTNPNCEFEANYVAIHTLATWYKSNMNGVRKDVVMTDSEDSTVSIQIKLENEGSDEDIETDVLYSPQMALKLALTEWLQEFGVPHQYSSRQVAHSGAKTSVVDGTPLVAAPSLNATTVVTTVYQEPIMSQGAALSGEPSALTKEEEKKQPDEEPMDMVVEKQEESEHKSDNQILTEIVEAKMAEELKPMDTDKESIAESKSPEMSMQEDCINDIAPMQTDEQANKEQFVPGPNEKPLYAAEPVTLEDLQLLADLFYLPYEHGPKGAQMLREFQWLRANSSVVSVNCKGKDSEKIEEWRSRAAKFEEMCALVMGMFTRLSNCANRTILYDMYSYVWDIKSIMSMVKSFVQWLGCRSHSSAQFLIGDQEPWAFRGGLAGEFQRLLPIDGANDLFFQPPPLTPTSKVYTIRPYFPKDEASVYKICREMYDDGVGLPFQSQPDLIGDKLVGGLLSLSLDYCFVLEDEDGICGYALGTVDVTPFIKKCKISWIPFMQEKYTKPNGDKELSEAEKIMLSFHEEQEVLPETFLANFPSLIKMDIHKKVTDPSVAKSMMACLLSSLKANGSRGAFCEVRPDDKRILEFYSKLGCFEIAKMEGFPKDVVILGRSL

[3] = Clearance in Wistar Han rat at 2 mg/kg, iv; type: ADME, organism-based; conditions: in vivo
[4] = Ratio of drug uptake in rat brain to plasma at 3 mg/kg, po measured after 8 hrs; type: ADME, organism-based; conditions: read-out: BPR
Rattus norvegicus = test: Elevation of O-protein in rat brain at 3 mg/kg, po measured after 8 hrs relative to control; type: functional
Protein O-GlcNAcase [5] = biological target: T2, Protein O-GlcNAcase (Homo sapiens, UniProt O60502); test: Inhibition of recombinant human OGA
T2 sequence (O60502 whole entry): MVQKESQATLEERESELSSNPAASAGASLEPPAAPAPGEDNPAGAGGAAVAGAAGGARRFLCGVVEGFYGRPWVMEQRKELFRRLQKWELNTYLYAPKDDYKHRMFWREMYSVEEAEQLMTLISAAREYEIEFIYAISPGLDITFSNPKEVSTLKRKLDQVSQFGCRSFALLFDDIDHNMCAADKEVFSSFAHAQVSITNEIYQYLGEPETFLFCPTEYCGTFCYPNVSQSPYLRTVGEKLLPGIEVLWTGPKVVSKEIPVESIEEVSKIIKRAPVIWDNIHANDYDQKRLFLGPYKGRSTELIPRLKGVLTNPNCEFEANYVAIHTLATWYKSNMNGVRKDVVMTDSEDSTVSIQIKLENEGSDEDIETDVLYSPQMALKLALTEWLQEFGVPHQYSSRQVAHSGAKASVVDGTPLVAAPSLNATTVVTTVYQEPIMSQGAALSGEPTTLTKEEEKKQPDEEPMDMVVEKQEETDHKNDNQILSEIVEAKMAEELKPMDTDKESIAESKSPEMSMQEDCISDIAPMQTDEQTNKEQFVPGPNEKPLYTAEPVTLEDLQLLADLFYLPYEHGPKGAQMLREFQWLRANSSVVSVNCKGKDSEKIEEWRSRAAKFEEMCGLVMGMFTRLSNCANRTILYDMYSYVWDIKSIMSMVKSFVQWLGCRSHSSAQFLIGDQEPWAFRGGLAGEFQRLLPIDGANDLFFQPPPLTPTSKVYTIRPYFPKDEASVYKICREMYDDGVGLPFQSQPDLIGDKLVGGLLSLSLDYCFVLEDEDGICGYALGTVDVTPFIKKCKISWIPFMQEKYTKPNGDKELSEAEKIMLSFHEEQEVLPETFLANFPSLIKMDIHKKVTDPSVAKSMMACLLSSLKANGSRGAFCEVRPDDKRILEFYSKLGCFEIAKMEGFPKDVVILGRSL

[6] = Oral bioavailability in Wistar Han rat at 3 mg/kg; type: ADME, organism-based; conditions: in vivo
[7] = biological target: T3, Beta-hexosaminidase subunit beta (Homo sapiens, UniProt P07686); test: Inhibition of human beta hexosaminidase assessed as inhibitory constant using 4-methylumbelliferyl N-acetyl-beta-D-glucosaminide dihydrate as substrate measured every 60 sec for 45 mins by fluorescence spectrophotometry
T3 sequence (P07686 whole entry): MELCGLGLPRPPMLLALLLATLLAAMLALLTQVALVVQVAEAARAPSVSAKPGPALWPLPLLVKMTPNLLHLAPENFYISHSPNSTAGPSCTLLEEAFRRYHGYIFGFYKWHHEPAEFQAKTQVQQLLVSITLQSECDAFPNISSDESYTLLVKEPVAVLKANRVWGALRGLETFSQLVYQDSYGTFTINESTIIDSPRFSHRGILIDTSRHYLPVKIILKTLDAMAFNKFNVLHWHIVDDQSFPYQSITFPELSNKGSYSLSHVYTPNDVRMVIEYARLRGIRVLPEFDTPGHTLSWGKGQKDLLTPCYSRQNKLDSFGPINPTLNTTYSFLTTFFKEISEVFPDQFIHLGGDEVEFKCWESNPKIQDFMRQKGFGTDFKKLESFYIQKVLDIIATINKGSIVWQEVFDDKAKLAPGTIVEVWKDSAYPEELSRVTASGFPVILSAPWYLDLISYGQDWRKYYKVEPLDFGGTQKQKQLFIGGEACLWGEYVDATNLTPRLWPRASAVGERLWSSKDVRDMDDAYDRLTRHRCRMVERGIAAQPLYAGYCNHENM

[8] = Fraction unbound in human plasma at 2.5 uM by equilibrium dialysis; type: ADME, cell-free
[9] = AUCN in Wistar Han rat at 3 mg/kg, po; type: ADME, organism-based; conditions: in vivo
[10] = Fraction unbound in Wistar Han rat plasma at 2.5 uM by equilibrium dialysis; type: ADME, cell-free
[11] = Drug uptake in rat brain at 3 mg/kg, po measured after 8 hrs; type: ADME, organism-based; conditions: in vivo
[12] = Volume of distribution at steady state in Wistar Han rat at 2 mg/kg, iv or 3 mg/kg, po; type: ADME, organism-based; conditions: in vivo, read-out: Vdss
[13] = Volume of distribution at steady state in Wistar Han rat at 2 mg/kg, iv or 10 mg/kg, po; type: ADME, organism-based; conditions: in vivo, read-out: Vdss
[14] = Oral bioavailability in Wistar Han rat at 10 mg/kg; type: ADME, organism-based; conditions: in vivo
[15] = AUCN in Wistar Han rat at 10 mg/kg, po; type: ADME, organism-based; conditions: in vivo
[16] = biological target: Sodium channel protein type 5 subunit alpha (Homo sapiens, UniProt Q14524); test: Inhibition of Nav1.5 (unknown origin)
Sequence of Sodium channel protein type 5 subunit alpha (Q14524 whole entry): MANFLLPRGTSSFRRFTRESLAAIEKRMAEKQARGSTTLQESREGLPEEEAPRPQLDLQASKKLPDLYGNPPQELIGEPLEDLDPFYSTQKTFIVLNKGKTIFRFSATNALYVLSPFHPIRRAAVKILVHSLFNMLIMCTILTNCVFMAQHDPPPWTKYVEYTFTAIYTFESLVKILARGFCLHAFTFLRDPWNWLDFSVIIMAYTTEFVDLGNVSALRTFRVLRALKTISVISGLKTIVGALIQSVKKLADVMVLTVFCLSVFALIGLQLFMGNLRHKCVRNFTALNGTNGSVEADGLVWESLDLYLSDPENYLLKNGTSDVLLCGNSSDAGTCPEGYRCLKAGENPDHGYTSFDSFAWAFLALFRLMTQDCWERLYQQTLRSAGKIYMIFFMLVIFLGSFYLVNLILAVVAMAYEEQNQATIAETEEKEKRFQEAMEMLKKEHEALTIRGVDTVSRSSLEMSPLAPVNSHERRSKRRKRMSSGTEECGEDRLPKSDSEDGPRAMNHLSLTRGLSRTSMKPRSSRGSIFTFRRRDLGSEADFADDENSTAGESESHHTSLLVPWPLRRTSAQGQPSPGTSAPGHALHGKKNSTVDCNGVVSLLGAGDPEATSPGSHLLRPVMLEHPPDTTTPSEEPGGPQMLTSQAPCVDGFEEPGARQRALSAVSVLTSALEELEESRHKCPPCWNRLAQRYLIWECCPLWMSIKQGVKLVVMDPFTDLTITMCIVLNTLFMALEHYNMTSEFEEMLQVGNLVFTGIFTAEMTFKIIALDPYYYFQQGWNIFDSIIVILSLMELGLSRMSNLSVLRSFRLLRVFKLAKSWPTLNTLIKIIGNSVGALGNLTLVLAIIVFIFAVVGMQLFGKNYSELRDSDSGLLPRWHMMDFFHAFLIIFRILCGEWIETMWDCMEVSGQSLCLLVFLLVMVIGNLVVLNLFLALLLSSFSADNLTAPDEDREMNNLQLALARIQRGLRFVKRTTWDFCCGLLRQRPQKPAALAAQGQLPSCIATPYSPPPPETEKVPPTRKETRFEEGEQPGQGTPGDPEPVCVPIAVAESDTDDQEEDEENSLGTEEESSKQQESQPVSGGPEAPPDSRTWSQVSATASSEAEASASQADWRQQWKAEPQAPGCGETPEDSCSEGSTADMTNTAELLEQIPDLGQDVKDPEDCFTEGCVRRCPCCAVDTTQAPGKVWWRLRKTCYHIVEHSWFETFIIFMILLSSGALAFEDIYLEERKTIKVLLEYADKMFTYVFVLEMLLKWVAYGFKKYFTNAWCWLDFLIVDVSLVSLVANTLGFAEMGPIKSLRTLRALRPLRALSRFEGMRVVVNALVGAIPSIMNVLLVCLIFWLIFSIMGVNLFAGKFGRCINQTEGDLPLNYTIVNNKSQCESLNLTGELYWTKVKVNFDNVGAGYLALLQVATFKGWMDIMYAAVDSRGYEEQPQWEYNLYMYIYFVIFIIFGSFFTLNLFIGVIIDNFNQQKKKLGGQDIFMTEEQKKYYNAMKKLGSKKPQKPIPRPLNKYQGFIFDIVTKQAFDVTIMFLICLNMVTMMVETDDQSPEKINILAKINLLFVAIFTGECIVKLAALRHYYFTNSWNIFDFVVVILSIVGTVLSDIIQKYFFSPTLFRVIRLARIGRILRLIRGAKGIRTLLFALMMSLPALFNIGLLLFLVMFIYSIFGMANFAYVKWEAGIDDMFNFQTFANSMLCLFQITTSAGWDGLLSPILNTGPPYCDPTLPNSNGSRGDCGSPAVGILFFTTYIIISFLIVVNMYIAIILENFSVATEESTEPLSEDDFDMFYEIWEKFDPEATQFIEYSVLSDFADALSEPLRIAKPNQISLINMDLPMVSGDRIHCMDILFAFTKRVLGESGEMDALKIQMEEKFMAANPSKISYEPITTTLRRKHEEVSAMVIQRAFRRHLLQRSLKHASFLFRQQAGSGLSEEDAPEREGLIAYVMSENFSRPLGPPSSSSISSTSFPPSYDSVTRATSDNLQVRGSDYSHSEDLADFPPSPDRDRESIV

Cytochrome P450 2C9 = Cytochrome P450 2C9 (Homo sapiens, UniProt P11712); test: Inhibition of CYP2C9 (unknown origin); type: ADME
Sequence of Cytochrome P450 2C9 (P11712 whole entry): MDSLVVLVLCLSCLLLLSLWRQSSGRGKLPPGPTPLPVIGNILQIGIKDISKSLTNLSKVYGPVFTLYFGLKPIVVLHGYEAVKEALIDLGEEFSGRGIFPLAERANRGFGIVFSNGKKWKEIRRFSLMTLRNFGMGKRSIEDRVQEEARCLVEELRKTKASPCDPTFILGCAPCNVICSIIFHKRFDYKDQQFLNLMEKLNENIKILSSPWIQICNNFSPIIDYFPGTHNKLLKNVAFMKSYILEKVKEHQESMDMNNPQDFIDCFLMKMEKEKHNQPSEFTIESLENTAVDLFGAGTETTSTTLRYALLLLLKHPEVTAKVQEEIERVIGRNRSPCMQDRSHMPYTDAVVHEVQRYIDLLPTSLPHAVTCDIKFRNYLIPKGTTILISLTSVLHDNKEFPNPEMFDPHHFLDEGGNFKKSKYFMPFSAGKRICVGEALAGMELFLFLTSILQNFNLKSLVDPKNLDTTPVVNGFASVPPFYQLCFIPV

Cytochrome P450 3A4 = Cytochrome P450 3A4 (Homo sapiens, UniProt P08684); test: Inhibition of CYP3A4 (unknown origin); type: ADME
Sequence of Cytochrome P450 3A4 (P08684 whole entry): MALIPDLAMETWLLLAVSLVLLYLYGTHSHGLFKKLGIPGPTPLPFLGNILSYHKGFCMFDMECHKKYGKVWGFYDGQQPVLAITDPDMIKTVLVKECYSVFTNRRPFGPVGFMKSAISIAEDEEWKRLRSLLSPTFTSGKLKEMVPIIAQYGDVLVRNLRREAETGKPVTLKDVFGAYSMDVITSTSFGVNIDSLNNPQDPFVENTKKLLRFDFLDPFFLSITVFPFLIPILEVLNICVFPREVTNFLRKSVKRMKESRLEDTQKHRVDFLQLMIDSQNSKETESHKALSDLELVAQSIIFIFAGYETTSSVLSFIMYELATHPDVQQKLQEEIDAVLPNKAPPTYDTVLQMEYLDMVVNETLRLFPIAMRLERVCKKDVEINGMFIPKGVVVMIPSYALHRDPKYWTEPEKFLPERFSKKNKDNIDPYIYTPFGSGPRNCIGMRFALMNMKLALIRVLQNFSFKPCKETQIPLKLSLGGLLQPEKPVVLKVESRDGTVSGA

Cytochrome P450 2D6 = Cytochrome P450 2D6 (Homo sapiens, UniProt P10635); test: Inhibition of CYP2D6 (unknown origin); type: ADME
Sequence of Cytochrome P450 2D6 (P10635 whole entry): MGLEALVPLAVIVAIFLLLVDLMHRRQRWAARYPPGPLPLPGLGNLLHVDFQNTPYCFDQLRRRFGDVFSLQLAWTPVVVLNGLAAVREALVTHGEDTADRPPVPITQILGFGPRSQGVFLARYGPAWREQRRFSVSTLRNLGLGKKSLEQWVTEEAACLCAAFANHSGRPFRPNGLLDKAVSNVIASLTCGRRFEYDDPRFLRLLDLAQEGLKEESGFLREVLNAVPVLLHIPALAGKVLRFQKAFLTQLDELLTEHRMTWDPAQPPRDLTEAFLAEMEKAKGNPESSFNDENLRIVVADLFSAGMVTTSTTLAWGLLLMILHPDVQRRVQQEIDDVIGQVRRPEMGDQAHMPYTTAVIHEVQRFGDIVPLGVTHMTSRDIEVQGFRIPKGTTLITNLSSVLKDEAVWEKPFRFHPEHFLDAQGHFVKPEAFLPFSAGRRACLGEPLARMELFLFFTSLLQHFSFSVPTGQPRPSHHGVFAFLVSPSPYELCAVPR

[17] = biological target: Voltage-dependent L-type calcium channel subunit alpha-1C (Homo sapiens, UniProt Q13936); test: Inhibition of Cav1.2 (unknown origin)
[18] = biological target: T4, Nuclear receptor subfamily 1 group I member 2 (Homo sapiens, UniProt O75469); test: Activation of PXR (unknown origin) assessed as CYP3A4 induction
T4 sequence (O75469 whole entry): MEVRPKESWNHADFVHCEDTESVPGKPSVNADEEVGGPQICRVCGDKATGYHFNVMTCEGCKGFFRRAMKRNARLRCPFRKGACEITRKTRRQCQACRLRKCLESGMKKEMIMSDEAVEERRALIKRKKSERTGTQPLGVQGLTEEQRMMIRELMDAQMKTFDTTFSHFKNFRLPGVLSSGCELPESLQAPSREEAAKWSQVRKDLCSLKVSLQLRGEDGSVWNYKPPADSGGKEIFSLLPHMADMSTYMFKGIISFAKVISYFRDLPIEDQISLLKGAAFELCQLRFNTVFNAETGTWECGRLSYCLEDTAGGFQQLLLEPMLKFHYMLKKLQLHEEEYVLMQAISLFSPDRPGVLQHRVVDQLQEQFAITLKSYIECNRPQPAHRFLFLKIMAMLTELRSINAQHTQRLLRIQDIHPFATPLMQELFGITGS

[19] = biological target: Voltage-gated inwardly rectifying potassium channel KCNH2 (Homo sapiens, UniProt Q12809); test: Displacement of MK-0499 from human ERG
Sequence of Voltage-gated inwardly rectifying potassium channel KCNH2 (Q12809 whole entry): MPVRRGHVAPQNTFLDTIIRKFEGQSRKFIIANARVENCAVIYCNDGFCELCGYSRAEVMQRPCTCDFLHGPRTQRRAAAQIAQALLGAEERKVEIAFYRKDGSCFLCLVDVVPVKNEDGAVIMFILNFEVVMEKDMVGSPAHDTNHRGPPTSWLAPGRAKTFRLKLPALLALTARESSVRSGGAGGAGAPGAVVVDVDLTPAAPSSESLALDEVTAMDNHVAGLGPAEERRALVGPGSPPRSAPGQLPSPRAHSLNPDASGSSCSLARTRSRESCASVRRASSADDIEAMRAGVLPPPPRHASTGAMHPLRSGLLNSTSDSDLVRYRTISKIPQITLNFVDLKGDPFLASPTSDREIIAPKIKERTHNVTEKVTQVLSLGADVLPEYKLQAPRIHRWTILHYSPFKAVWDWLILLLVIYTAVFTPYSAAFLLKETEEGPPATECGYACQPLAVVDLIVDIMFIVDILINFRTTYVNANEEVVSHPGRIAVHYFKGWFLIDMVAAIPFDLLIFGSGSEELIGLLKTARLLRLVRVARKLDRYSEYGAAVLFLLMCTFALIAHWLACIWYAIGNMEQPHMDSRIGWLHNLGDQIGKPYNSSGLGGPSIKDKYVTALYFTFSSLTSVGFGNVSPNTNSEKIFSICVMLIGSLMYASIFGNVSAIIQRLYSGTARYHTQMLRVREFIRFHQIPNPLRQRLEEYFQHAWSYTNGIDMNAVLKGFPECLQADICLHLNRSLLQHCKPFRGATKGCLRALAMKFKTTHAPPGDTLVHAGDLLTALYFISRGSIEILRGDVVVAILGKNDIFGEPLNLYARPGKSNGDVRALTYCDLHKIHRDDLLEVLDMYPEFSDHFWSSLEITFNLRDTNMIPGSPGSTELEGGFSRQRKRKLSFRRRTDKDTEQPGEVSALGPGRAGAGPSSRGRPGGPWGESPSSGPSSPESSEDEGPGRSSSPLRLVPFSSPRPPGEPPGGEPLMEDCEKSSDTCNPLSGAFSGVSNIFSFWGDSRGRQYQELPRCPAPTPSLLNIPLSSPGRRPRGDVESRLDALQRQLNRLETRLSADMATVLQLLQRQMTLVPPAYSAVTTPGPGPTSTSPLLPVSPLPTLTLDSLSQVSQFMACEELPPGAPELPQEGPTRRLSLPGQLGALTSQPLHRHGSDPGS

Compound	Papp (MDR1) [×10⁻⁶ cm/s]	half-life [1] [h]	EC50 (Protein O-GlcNAcase [2]) [nM]	clearance [3] [mL/min/kg]	Ki (Protein O-GlcNAcase [5]) [nM]	Ki [7] [nM]	Vd [13] [L/kg]	bioavailability [14] [%]	AUC/dose [15] [µM·kg·h/mg]	IC50 (Cytochrome P450 2C9) [nM]	IC50 (Cytochrome P450 3A4) [nM]	IC50 (Cytochrome P450 2D6) [nM]	EC50 [18] [nM]	IC50 [16] [nM]	IC50 [17] [nM]	IC50 [19] [nM]	also measured
CNC1=N[C@@H]2C[C@H](O)[C@@H](CO)O[C@@H]2S1	–	1.06	33.1	39	9.4	> 10000	2.8	129	2.53	–	–	–	–	–	–	–	–
CCCNC1=N[C@@H]2[C@@H](O)[C@H](O)[C@@H](CF)O[C@@H]2S1	17	–	119	–	14	> 10000	–	75.3	–	–	–	–	–	–	–	–	–
CCNC1=N[C@H]2[C@H](O[C@H](CO)C[C@@H]2O)S1	7	–	–	–	> 3000	> 10000	–	–	–	> 50000	> 50000	> 50000	> 30000	> 30000	> 30000	> 30000	–
CCNC1=N[C@@H]2[C@@H](F)[C@H](O)[C@@H](CO)O[C@@H]2S1	2.7	2.4	443	31.9	29	> 10000	2	104	2.16	> 50000	> 50000	> 50000	> 30000	> 30000	> 30000	> 30000	–

Now those with a lower Ki (Protein O-GlcNAcase [5]), led by results:

Papp (MDR1) [×10⁻⁶ cm/s]	half-life [1] [h]	EC50 (Protein O-GlcNAcase [2]) [nM]	clearance [3] [mL/min/kg]	Ki (Protein O-GlcNAcase [5]) [nM]	Ki [7] [nM]	Vd [13] [L/kg]	bioavailability [14] [%]	AUC/dose [15] [µM·kg·h/mg]	IC50 (Cytochrome P450 2C9) [nM]	IC50 (Cytochrome P450 3A4) [nM]	IC50 (Cytochrome P450 2D6) [nM]	EC50 [18] [nM]	Compound	IC50 [16] [nM]	IC50 [17] [nM]	IC50 [19] [nM]	also measured
5.7	1.48	1.71	27.1	0.36	1300	–	–	–	–	–	–	–	CNC1=N[C@@H]2[C@@H](O)[C@H](O)[C@@H](C(F)F)O[C@@H]2S1	–	–	–	Kp at 8 h [4]: 1.33; fold change (FC) (Rattus norvegicus): 2; bioavailability [6]: 93.8%; fraction unbound at 2.5 µM [8]: 0.77; AUC/dose [9]: 2.54 µM·kg·h/mg; fraction unbound at 2.5 µM [10]: 0.83; Drug uptake [11]: 0.133 nmol/g; Vd [12]: 1.72 L/kg
–	1.63	28	53.6	3.3	> 10000	2.88	96	1.15	–	–	–	–	OC[C@H]1O[C@@H]2SC(N3CCC3)=N[C@@H]2[C@@H](O)[C@@H]1O	–	–	–	–

Reference: ChEMBL document CHEMBL4354805, “Discovery of MK-8719, a Potent O-GlcNAcase Inhibitor as a Potential Treatment for Tauopathies” (J Med Chem, 2019)
